From patent US5364777A, “Method of improving lipase activity using noble gases” (American Air Liquide, priority 1992, dated 1994)

Tests used:
[1] = tested on: triacylglycerol lipase EC 3.1.1.3; experiment: Lipase L-1754 hydrolysis of p-nitrophenyl caprate, butyrate, caproate under gaseous atmospheres (400 nm); assay type: biochemical, Candida cylindracea; conditions: for Maximum inhibition of lipase activity, PNP-Butyrate: substrate PNP-Butyrate, 10° C.; for Maximum enhancement of lipase activity, PNP-Caproate: substrate PNP-Caproate
Protocol: FIGS. 4-6 show a typical and similar enzyme assay carried out on the same enzyme using PNP-butyrate showing inhibition of activity at 10° C. 25° C. and 35° C., respectively. Significant depression in rate is noted.
(§1) Lipase catalysis of lipid conversion was tested using triglycerides, paranitrophenyl (PNP) acetate, PNP-butyrate, PNP-caprate, PNP-caprylate, PNP-caproate, olive oil, standard lipids and triglycerides, and other lipids. […]
(§2) Testing Of An Adequate Procedure
(§3) To Follow Lipase L-1754/p-Nitrophenyl
caprate N-0252, p-Nitrophenyl butyrate N-9876, p-Nitrophenyl
caproate N-0502, p-Nitrophenyl caprylate N-0752
PURPOSE: Testing protocol to follow Lipase L-17,54 using p-
ENZYME: Lipase (Sigma No. L-1754)
Type VII from Candida cylindracea w/ 30% lactose
p-Nitrophenyl caprate (Sigma No. N-02521)
p-Nitrophenyl butyrate (Sigma No. N-9876)
p-Nitrophenyl caproate (Sigma No. N-0502)
Results: We will do gas runs using p-nitrophenyl caproate and
p-nitrophenyl caprate as substrates. These will be compared to
p-nitrophenyl caproate N-0502
p-nitrophenyl caprate N-0252

[2] = tested on: triacylglycerol lipase EC 3.1.1.3; experiment: Lipase hydrolysis of p-nitrophenyl acetate under gaseous atmospheres (spectrophotometric, 400 nm); assay type: biochemical, Rhizonus arrhizus; conditions: substrate PNP-Acetate, +25° C.
Protocol: FIGS. 1-3 show a typical enzyme assay carried out at 10, 25 and 35 degrees °C. for triacylglycerol lipase catalysts of paranitrophenol acetate hydrolysis.
as §1, §2, §3
Effect of Air, Ne, Ar, Kr, Xe, N2 and O2 on
Lipase L-1754 using p-nitrophenyl acetate
ENZYME: Lipase (Sigma No. L-4384)
Type XI from Rhizonus arrhizus
p-Nitrophenyl acetate (Sigma No. N-8130)
8 DIFFERENT GASEOUS ATMOSPHERES:
3 DIFFERENT TEMPERATURES:
R = 2.0 ml Soln D + 0.5 ml Soln A
fill the cuvettes with 2.0 ml of (p-nitrophenyl
Fill 8 serum vials with 5.0 ml of (lipase
Bubble 10x10cc of the appropriate gas in T1G1 ... 5
Bubble 10xl0cc of the appropriate gas in G1 ... 5
Remove G1 ... 5 serum vials from fridge. Sample soln

| Structure (SMILES) | Maximum inhibition of lipase activity, PNP-Butyrate [1] [%] | Maximum enhancement of lipase activity, PNP-Caproate ([1]; +35 degrees) | Maximum enhancement of lipase activity, PNP-Acetate [2] | Maximum enhancement of lipase activity, PNP-Caprate ([1]; substrate PNP-Caprate, 35° C.) | Maximum enhancement of lipase activity, PNP-Caproate ([1]; 25° C.) |
| --- | --- | --- | --- | --- | --- |
| [Xe] [Xe, xenon] | 26 | +23% |  |  |  |
| [Kr] [Kr, krypton] | -25 |  | +11% |  |  |
| [Ar] [Ar, argon] |  |  |  | +14% | +37% |
